Blank lines part the entries; values can stand above or below the molecule they belong to. Active and inactive are the calls of the source. No cut-off for these calls is given here.
Columns and labels:
MCF7 [1] = test: Antitumor activity against human MCF7 cells xenografted in BALB/c nude mouse assessed as reduction in tumor weight at 30 to 60 mg/kg, ip administered once every 2 days for 21 consecutive days; format: functional, organism-based; conditions: dose 30-60 mg/kg, time 21.0 day
[2] = Toxicity in BALB/c mouse xenografted with human MCF7 cells assessed as effect on liver at 30 to 60 mg/kg, ip measured after 21 days by hematoxylin and eosin staining based histopathological analysis; format: organism-based; conditions: in vivo, 504 h, dose 30-60 mg/kg, time 21 day
MCF7 [3] = test: Induction of apoptosis in human MCF7 cells assessed as live cells at 0.5 uM measured after 24 hrs by Annexin-V FITC/PI staining based flow cytometry analysis (Rvb= 93.0%); format: functional
MCF7 [4] = test: Induction of apoptosis in human MCF7 cells assessed as downregulation of Bcl-2 expression at 0.5 to 2 uM measured after 24 hrs by western blot analysis; format: functional, cell-based; conditions: dose 0.5-2 µM
MCF7 [5] = test: Antitumor activity against human MCF7 cells xenografted in ip dosed BALB/c nude mouse assessed as tumor growth inhibition administered once every 2 days for 21 consecutive days; format: functional, organism-based; conditions: time 21.0 day
MCF7 [6] = test: Induction of apoptosis in human MCF7 cells assessed as increase in cleavage of PARP-1 at 0.5 to 2 uM measured after 24 hrs by western blot analysis; format: functional, cell-based; conditions: dose 0.5-2 µM
[7] = Toxicity in BALB/c mouse xenografted with human MCF7 cells assessed as effect on heart at 30 to 60 mg/kg, ip measured after 21 days by hematoxylin and eosin staining based histopathological analysis; format: organism-based; conditions: in vivo, 504 h, dose 30-60 mg/kg, time 21 day
MCF7 [8] = test: Antitumor activity against human MCF7 cells xenografted in BALB/c nude mouse assessed as tumor growth inhibition at 60 mg/kg, ip administered once every 2 days for 21 consecutive days relative to control; format: functional; conditions: 504 h, time 21 day, read-out: TGI
MCF7 [9] = test: Induction of apoptosis in human MCF7 cells assessed as early apoptotic cells at 0.25 uM measured after 24 hrs by Annexin-V FITC/PI staining based flow cytometry analysis (Rvb= 1.33%); format: functional
MCF7 [10] = test: Induction of apoptosis in human MCF7 cells assessed as dead cells at 0.5 uM measured after 24 hrs by Annexin-V FITC/PI staining based flow cytometry analysis (Rvb= 0.06%); format: functional
MCF7 [11] = test: Inhibition of cell proliferation in human MCF7 cells assessed as increase in intracellular NO production at 25 uM measured after 2.5 hrs by nitric oxide assay; format: functional, cell-based
MCF7 [12] = test: Induction of apoptosis in human MCF7 cells assessed as live cells at 0.25 uM measured after 24 hrs by Annexin-V FITC/PI staining based flow cytometry analysis (Rvb= 93.0%); format: functional
MCF7 [13] = test: Induction of apoptosis in human MCF7 cells assessed as early apoptotic cells at 1 uM measured after 24 hrs by Annexin-V FITC/PI staining based flow cytometry analysis (Rvb= 1.33%); format: functional
MCF7 [14] = test: Induction of apoptosis in human MCF7 cells assessed as dead cells at 1 uM measured after 24 hrs by Annexin-V FITC/PI staining based flow cytometry analysis (Rvb= 0.06%); format: functional
MDA-MB-231 = test: Antiproliferative activity against human MDA-MB-231 cells assessed as inhibition of cell growth measured after 48 hrs by MTT assay; format: functional, cell-based; conditions: MDA-MB-231, 48 h
MCF7 [15] = test: Inhibition of PI3K/AKT signalling pathway in human MCF7 cells assessed as reduction in phosphorylated AKT expression measured after 24 hrs by western blot analysis; format: cell-based; conditions: dose 0.5-2 µM
MCF7 [16] = test: Induction of apoptosis in human MCF7 cells assessed as upregulation of Bad expression at 0.5 to 2 uM measured after 24 hrs by western blot analysis; format: functional, cell-based; conditions: dose 0.5-2 µM
MCF7 [17] = test: Induction of cell cycle arrest in human MCF7 cells assessed as accumulation of cells in G2 phase at 0.5 uM measured after 24 hrs by propidium iodide staining based flow cytometry analysis (Rvb= 18.5%); format: functional
MCF7 [18] = test: Inhibition of PI3K/AKT signalling pathway in human MCF7 cells assessed as reduction in phosphorylated PI3K expression measured after 24 hrs by western blot analysis; format: cell-based; conditions: dose 0.5-2 µM
MCF7 [19] = test: Induction of apoptosis in human MCF7 cells assessed as live cells at 1 uM measured after 24 hrs by Annexin-V FITC/PI staining based flow cytometry analysis (Rvb= 93.0%); format: functional
MCF7 [20] = test: Induction of cell cycle arrest in human MCF7 cells assessed as accumulation of cells in S phase at 1 uM measured after 24 hrs by propidium iodide staining based flow cytometry analysis (Rvb= 25.71%); format: functional
MCF7 [21] = test: Induction of cell cycle arrest in human MCF7 cells assessed as accumulation of cells in S phase at 0.25 uM measured after 24 hrs by propidium iodide staining based flow cytometry analysis (Rvb= 25.71%); format: functional
[22] = Toxicity in BALB/c mouse xenografted with human MCF7 cells assessed as effect on kidney at 30 to 60 mg/kg, ip measured after 21 days by hematoxylin and eosin staining based histopathological analysis; format: organism-based; conditions: in vivo, 504 h, dose 30-60 mg/kg, time 21 day
MCF7 [23] = test: Induction of cell cycle arrest in human MCF7 cells assessed as accumulation of cells in S phase at 0.5 uM measured after 24 hrs by propidium iodide staining based flow cytometry analysis (Rvb= 25.71%); format: functional
MCF7 [24] = test: Induction of apoptosis in human MCF7 cells assessed as late apoptotic cells at 0.25 uM measured after 24 hrs by Annexin-V FITC/PI staining based flow cytometry analysis (Rvb= 5.61%); format: functional
MCF7 [25] = test: Induction of cell cycle arrest in human MCF7 cells assessed as accumulation of cells in G2 phase at 1 uM measured after 24 hrs by propidium iodide staining based flow cytometry analysis (Rvb= 18.5%); format: functional
MCF7 [26] = test: Inhibition of PI3K/AKT signalling pathway in human MCF7 cells assessed as reduction in AKT expression at 0.5 to 2 uM measured after 24 hrs by western blot analysis; format: cell-based; conditions: dose 0.5-2 µM
[27] = Toxicity in BALB/c mouse xenografted with human MCF7 cells assessed as weight loss at 30 to 60 mg/kg, ip measured after 21 days; format: organism-based; conditions: in vivo, 504 h, dose 30-60 mg/kg, time 21 day
MCF7 [28] = test: Induction of cell cycle arrest in human MCF7 cells assessed as accumulation of cells in sub G1 phase at 0.25 to 1 uM measured after 24 hrs by propidium iodide staining based flow cytometry analysis (Rvb= 21.1%); format: functional; conditions: dose 0.25-1 µM
MCF7 [29] = test: Induction of apoptosis in human MCF7 cells assessed as late apoptotic cells at 1 uM measured after 24 hrs by Annexin-V FITC/PI staining based flow cytometry analysis (Rvb= 5.61%); format: functional
MCF7 [30] = test: Induction of cell cycle arrest in human MCF7 cells assessed as accumulation of cells in G2/M phase at 0.25 to 1 uM measured after 24 hrs by propidium iodide staining based flow cytometry analysis (Rvb= 19.7%); format: functional; conditions: dose 0.25-1 µM
MCF-10A = test: Cytotoxicity against human MCF-10A cells assessed as reduction in cell viability measured after 48 hrs by MTT assay; format: cell-based
MCF7 [31] = test: Antitumor activity against human MCF7 cells xenografted in BALB/c nude mouse assessed as reduction in tumor volume at 30 mg/kg, ip administered once every 2 days for 21 consecutive days relative to control; format: functional; parameters: scale not given: the % may be the effect or the level left; conditions: time 21 day
MCF7 [32] = test: Potency index, ratio of scopoletin derivative 5 IC50 to test compound IC50 for human MCF7 cells assessed as inhibition of cell growth measured after 48 hrs by MTT assay; format: functional
MCF7 [33] = test: Induction of apoptosis in human MCF7 cells assessed as dead cells at 0.25 uM measured after 24 hrs by Annexin-V FITC/PI staining based flow cytometry analysis (Rvb= 0.06%); format: functional
MCF7 [34] = test: Antiproliferative activity against human MCF7 cells assessed as inhibition of cell growth measured after 48 hrs by MTT assay; format: functional, cell-based; conditions: MCF7, 48 h
MCF7 [35] = test: Induction of cell cycle arrest in human MCF7 cells assessed as accumulation of cells in G1 phase at 0.25 uM measured after 24 hrs by propidium iodide staining based flow cytometry analysis (Rvb= 54.96%); format: functional
MCF7 [36] = test: Antiproliferative activity against human MCF7 cells assessed as inhibition of cell proliferation at 2 uM pretreated with hemoglobin NO scavenger for 2 hrs followed by addition of compound and measured after 48 hrs by MTT assay; format: functional, cell-based
[37] = Toxicity in BALB/c mouse xenografted with human MCF7 cells assessed as effect on spleen at 30 to 60 mg/kg, ip measured after 21 days by hematoxylin and eosin staining based histopathological analysis; format: organism-based; conditions: in vivo, 504 h, dose 30-60 mg/kg, time 21 day
MCF7 [38] = test: Induction of apoptosis in human MCF7 cells assessed as late apoptotic cells at 0.5 uM measured after 24 hrs by Annexin-V FITC/PI staining based flow cytometry analysis (Rvb= 5.61%); format: functional
[39] = Toxicity in BALB/c mouse xenografted with human MCF7 cells assessed as effect on lung at 30 to 60 mg/kg, ip measured after 21 days by hematoxylin and eosin staining based histopathological analysis; format: organism-based; conditions: in vivo, 504 h, dose 30-60 mg/kg, time 21 day
MCF7 [40] = test: Induction of cell cycle arrest in human MCF7 cells assessed as accumulation of cells in G1 phase at 0.5 uM measured after 24 hrs by propidium iodide staining based flow cytometry analysis (Rvb= 54.96%); format: functional
MCF7 [41] = test: Induction of apoptosis in human MCF7 cells assessed as early apoptotic cells at 0.5 uM measured after 24 hrs by Annexin-V FITC/PI staining based flow cytometry analysis (Rvb= 1.33%); format: functional
MCF7 [42] = test: Induction of cell cycle arrest in human MCF7 cells assessed as accumulation of cells in G2 phase at 0.25 uM measured after 24 hrs by propidium iodide staining based flow cytometry analysis (Rvb= 18.5%); format: functional
MCF7 [43] = test: Induction of cell cycle arrest in human MCF7 cells assessed as accumulation of cells in G1 phase at 1 uM measured after 24 hrs by propidium iodide staining based flow cytometry analysis (Rvb= 54.96%); format: functional
MCF7 [44] = test: Inhibition of PI3K/AKT signalling pathway in human MCF7 cells assessed as reduction in PI3K expression at 0.5 to 2 uM measured after 24 hrs by western blot analysis; format: cell-based; conditions: dose 0.5-2 µM
MCF7 [45] = test: Induction of apoptosis in human MCF7 cells assessed as upregulation of Bax expression at 0.5 to 2 uM measured after 24 hrs by western blot analysis; format: functional, cell-based; conditions: dose 0.5-2 µM

SMILES: COc1cc2cc(C(=O)NCc3ccc(F)cc3)c(=O)oc2cc1OCCCOc1no[n+]([O-])c1S(=O)(=O)c1ccccc1
Activity (MCF7 [1]): Active | Activity [2]: Non-Toxic | Activity (MCF7 [3]): 83.1% | Activity (MCF7 [4]): Dose-Dependent Effect | Activity (MCF7 [5]): Dose-Dependent Effect | Activity (MCF7 [6]): Active | Activity [7]: Non-Toxic | inhibition in vivo at 60 mg/kg (MCF7 [8]): 75.2% | Activity (MCF7 [9]): 5.72% | Activity (MCF7 [10]): 0.196% | Activity (MCF7 [11]): Active | Activity (MCF7 [12]): 87.5% | Activity (MCF7 [13]): 9.38% | Activity (MCF7 [14]): 1.41% | IC50 (MDA-MB-231): 770 nM | inhibition (MCF7 [15]): Dose-Dependent Effect | Activity (MCF7 [16]): Active | Activity (MCF7 [17]): 38.44% | inhibition (MCF7 [18]): Dose-Dependent Effect | Activity (MCF7 [19]): 62% | Activity (MCF7 [20]): 18.16% | Activity (MCF7 [21]): 20.8% | Activity [22]: Non-Toxic | Activity (MCF7 [23]): 19.05% | Activity (MCF7 [24]): 6.53% | Activity (MCF7 [25]): 44.96% | inhibition (MCF7 [26]): inactive | Activity [27]: Non-Toxic | Activity (MCF7 [28]): 50% | Activity (MCF7 [29]): 27.2% | Activity (MCF7 [30]): 47.1% | IC50 (MCF-10A): 8460 nM | Activity (MCF7 [31]): 63.3% | Ratio IC50 (MCF7 [32]): 5 | Activity (MCF7 [33]): 0.153% | IC50 (MCF7 [34]): 370 nM | Activity (MCF7 [35]): 52.88% | Activity (MCF7 [36]): inactive | Activity [37]: Non-Toxic | Activity (MCF7 [38]): 9.19% | Activity [39]: Non-Toxic | Activity (MCF7 [40]): 40.11% | Activity (MCF7 [41]): 7.49% | Activity (MCF7 [42]): 25.76% | Activity (MCF7 [43]): 36.65% | inhibition (MCF7 [44]): inactive | Activity (MCF7 [45]): Active

IC50 (MDA-MB-231): 760 nM | IC50 (MCF7 [34]): 870 nM
SMILES: COc1cc2cc(C(=O)NCCCc3ccccc3)c(=O)oc2cc1OCCCOc1no[n+]([O-])c1S(=O)(=O)c1ccccc1
Activity (MCF7 [11]): Active | IC50 (MCF-10A): 5330 nM

IC50 (MDA-MB-231): 1060 nM | IC50 (MCF7 [34]): 740 nM
SMILES: COc1cc2cc(C(=O)NCc3ccccc3)c(=O)oc2cc1OCCCOc1no[n+]([O-])c1S(=O)(=O)c1ccccc1
Activity (MCF7 [11]): Active | IC50 (MCF-10A): 7030 nM

IC50 (MDA-MB-231): 1200 nM | IC50 (MCF7 [34]): 860 nM
SMILES: COc1cc2cc(C(=O)Nc3ccc(F)cc3)c(=O)oc2cc1OCCCOc1no[n+]([O-])c1S(=O)(=O)c1ccccc1
Activity (MCF7 [11]): Active | IC50 (MCF-10A): 7210 nM

Reference: ChEMBL document CHEMBL4842344, “Design, synthesis and biological activity evaluation of novel scopoletin-NO donor derivatives against MCF-7 human breast cancer in vitro and in vivo” (Eur J Med Chem, 2021)
